According to PubChem BioAssay (NCI):
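Where inhibition never reached the appropriate level, the endpoint shown equals the highest concentration tested. Otherwise, values were interpolated linearly from a five-concentration, 48-hour dose response in 96-well plates. GI50 = concentration required for 50% inhibition of growth. TGI: concentration producing complete growth inhibition.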

Experiments:
Assay in all cases: NCI anticancer screen, dose series, 48 h
DU-145 prostate = test system: DU-145 prostate
MCF7 breast = test system: MCF7 breast
HS 578T breast = test system: HS 578T breast
T-47D breast = test system: T-47D breast
MDA-N = test system: MDA-N
PC-3 prostate = test system: PC-3 prostate
MDA-MB-435 = test system: MDA-MB-435
M19-MEL melanoma = test system: M19-MEL melanoma
LXFL 529 NSCLC = test system: LXFL 529 NSCLC
KM20L2 colon = test system: KM20L2 colon
DLD-1 colon = test system: DLD-1 colon
XF 498 CNS = test system: XF 498 CNS
HOP-18 NSCLC = test system: HOP-18 NSCLC
786-0 renal = test system: 786-0 renal

CN1C[C@H]2[C@@H](C1=O)[C@H](c1ccccc1)ON2C
TGI (DU-145 prostate): > 100 µM
TGI (MCF7 breast): > 100 µM
TGI (HS 578T breast): > 100 µM
TGI (T-47D breast): > 100 µM
TGI (MDA-N): > 100 µM
TGI (PC-3 prostate): > 100 µM
TGI (MDA-MB-435): > 100 µM

CC(=O)O[C@H]1C=CC(=O)C(C)CC1C (some centres not stated)
TGI (M19-MEL melanoma): > 100 µM
TGI (LXFL 529 NSCLC): > 100 µM
TGI (KM20L2 colon): > 100 µM
TGI (DLD-1 colon): > 100 µM
TGI (XF 498 CNS): > 100 µM

COc1ccc(-c2nn(-c3cccc(NC(=O)Nc4ccccc4)c3)cc2-c2ccncc2)cc1Cl
GI50 (DU-145 prostate): 2.47 µM
TGI (DU-145 prostate): 5.87 µM
GI50 (MCF7 breast): 2.07 µM
TGI (MCF7 breast): 4.91 µM
GI50 (HS 578T breast): 2.46 µM
TGI (HS 578T breast): 7.94 µM
GI50 (T-47D breast): 2.19 µM
TGI (T-47D breast): 5.39 µM
GI50 (PC-3 prostate): 1.84 µM
TGI (PC-3 prostate): 4.5 µM
GI50 (MDA-MB-435): 2.03 µM
TGI (MDA-MB-435): 5.25 µM

Fc1ccc(-c2nn3c(-c4cc(C(F)(F)F)cc(C(F)(F)F)c4)nnc3s2)cc1
GI50 (DU-145 prostate): > 50 µM
TGI (DU-145 prostate): > 50 µM
GI50 (MCF7 breast): > 50 µM
TGI (MCF7 breast): > 50 µM
GI50 (HS 578T breast): 1.76 µM
TGI (HS 578T breast): > 50 µM
GI50 (PC-3 prostate): > 50 µM
TGI (PC-3 prostate): > 50 µM
GI50 (MDA-MB-435): > 50 µM
TGI (MDA-MB-435): > 50 µM

C=C1C(=O)O[C@@H]2[C@H]1CCC(C)=C1C=CC(=O)[C@]12C
TGI (HOP-18 NSCLC): 29.7 µM
TGI (LXFL 529 NSCLC): 26.7 µM
TGI (DLD-1 colon): 32.8 µM

CC(=O)C=NCC(=O)O
TGI (DU-145 prostate): > 100 µM
TGI (MCF7 breast): > 100 µM
TGI (HS 578T breast): > 100 µM
TGI (T-47D breast): > 100 µM
TGI (786-0 renal): > 100 µM
TGI (MDA-N): > 100 µM
TGI (PC-3 prostate): > 100 µM
TGI (MDA-MB-435): > 100 µM

O=C(Nc1ccc(Sc2ccc(N=Nc3c(O)c(S(=O)(=O)O)cc4cc(S(=O)(=O)O)ccc34)cc2)cc1)c1ccc(N=Nc2c(O)ccc3c(S(=O)(=O)O)cc(S(=O)(=O)O)cc23)cc1
TGI (HOP-18 NSCLC): > 100 µM
TGI (M19-MEL melanoma): 68.6 µM
TGI (LXFL 529 NSCLC): > 100 µM
TGI (KM20L2 colon): > 100 µM
TGI (DLD-1 colon): > 100 µM
TGI (786-0 renal): > 100 µM
TGI (XF 498 CNS): 91.7 µM

c1ccc(N=c2nc(N3CCOCC3)ss2)cc1
TGI (HOP-18 NSCLC): > 100 µM
TGI (M19-MEL melanoma): 32 µM
TGI (LXFL 529 NSCLC): 24.6 µM
TGI (KM20L2 colon): 31.4 µM
TGI (DLD-1 colon): 28.3 µM
TGI (786-0 renal): 30.1 µM
TGI (XF 498 CNS): 32.1 µM

N#CC(Nc1cccc(C(F)(F)F)c1)c1ccccc1C(F)(F)F (configuration not stated)
TGI (HOP-18 NSCLC): 26.4 µM
TGI (M19-MEL melanoma): 18 µM
TGI (LXFL 529 NSCLC): 15.7 µM
TGI (KM20L2 colon): 28.4 µM
TGI (DLD-1 colon): 29.5 µM
TGI (XF 498 CNS): 12.9 µM

CCC(=O)NC(Nc1cccc(F)c1)(C(F)(F)F)C(F)(F)F
TGI (DU-145 prostate): > 100 µM
TGI (MCF7 breast): > 100 µM
TGI (HS 578T breast): > 100 µM
TGI (T-47D breast): > 100 µM
TGI (MDA-N): > 100 µM
TGI (PC-3 prostate): > 100 µM
TGI (MDA-MB-435): > 100 µM
